Measurements: the NIST ThermoML archive (doi:10.1016/j.fluid.2010.07.026)
Values joined by “and” are separate entries in the source; they are usually repeats but may differ in a detail not shown here. Identical values can stand only once.

Key:
[1] = Capillary rise
[2] = wn = mass fraction of the nth substance listed; details: Capillary rise

CCC [propane]
[1]
Details	surface tension liquid-gas [mN/m]
278.18 K	9.5
283.18 K	8.9
288.19 K	8.3
293.18 K	7.7
298.1 K	7.1
303.18 K	6.4

COC [dimethyl ether]
[1]
Details	surface tension liquid-gas [mN/m]
278.16 K	14.7
283.21 K	13.9
288.17 K	13.1
293.15 K	12.6
298.1 K	11.8
303.13 K	11

COC [dimethyl ether] + CCC
[2]
Details	surface tension liquid-gas
243.4 K, w1 = 0.4975	16 mN/m
243.46 K, w1 = 0.6949	17.3 mN/m and 17.2 mN/m
243.56 K, w1 = 0.3007	15.2 mN/m
248.19 K, w1 = 0.4975	15.4 mN/m
248.27 K, w1 = 0.3007	14.5 mN/m
248.43 K, w1 = 0.6949	16.7 mN/m and 16.6 mN/m
253.08 K, w1 = 0.3007	13.9 mN/m
253.09 K, w1 = 0.4975	14.7 mN/m
253.23 K, w1 = 0.6949	15.9 mN/m and 15.8 mN/m
258.34 K, w1 = 0.6949	15.2 mN/m
258.38 K, w1 = 0.4975	13.9 mN/m and 14 mN/m
258.42 K, w1 = 0.3007	13.1 mN/m
263.11 K, w1 = 0.4975	13.4 mN/m
263.16 K, w1 = 0.6949	14.4 mN/m
263.33 K, w1 = 0.3007	12.4 mN/m
268.05 K, w1 = 0.3007	11.8 mN/m
268.16 K, w1 = 0.4975	12.7 mN/m
268.16 K, w1 = 0.6949	13.7 mN/m
273.14 K, w1 = 0.3007	11.1 mN/m
273.15 K, w1 = 0.6949	12.9 mN/m
273.16 K, w1 = 0.4975	11.9 mN/m and 12 mN/m
278.13 K, w1 = 0.3007	10.5 mN/m
278.15 K, w1 = 0.4975	11.3 mN/m
278.16 K, w1 = 0.6949	12.3 mN/m
283.13 K, w1 = 0.3007	9.8 mN/m
283.16 K, w1 = 0.4975	10.6 mN/m
283.16 K, w1 = 0.6949	11.6 mN/m
288.12 K, w1 = 0.3007	9.1 mN/m
288.15 K, w1 = 0.4975	10 mN/m
288.15 K, w1 = 0.6949	11 mN/m and 11.1 mN/m
293.11 K, w1 = 0.3007	8.4 mN/m and 8.5 mN/m
293.13 K, w1 = 0.4975	9.3 mN/m
293.17 K, w1 = 0.6949	10.4 mN/m
298.08 K, w1 = 0.3007	7.8 mN/m and 7.9 mN/m
298.09 K, w1 = 0.4975	8.7 mN/m
298.1 K, w1 = 0.6949	9.6 mN/m
303.12 K, w1 = 0.4975	8 mN/m
303.15 K, w1 = 0.3007	7 mN/m and 7.1 mN/m
303.17 K, w1 = 0.6949	9.1 mN/m
308.08 K, w1 = 0.4975	7.4 mN/m
308.11 K, w1 = 0.3007	6.5 mN/m
308.11 K, w1 = 0.6949	8.5 mN/m and 8.4 mN/m
313.17 K, w1 = 0.3007	5.9 mN/m
313.17 K, w1 = 0.4975	6.6 mN/m and 6.7 mN/m
313.18 K, w1 = 0.6949	7.7 mN/m
318.13 K, w1 = 0.3007	5.3 mN/m
318.13 K, w1 = 0.4975	6.1 mN/m
318.16 K, w1 = 0.6949	7.1 mN/m
323.17 K, w1 = 0.3007	4.8 mN/m
323.17 K, w1 = 0.4975	5.5 mN/m
323.17 K, w1 = 0.6949	6.5 mN/m and 6.4 mN/m
328.12 K, w1 = 0.3007	4.2 mN/m
328.13 K, w1 = 0.4975	4.9 mN/m and 5 mN/m
328.14 K, w1 = 0.6949	5.9 mN/m and 5.8 mN/m
333.12 K, w1 = 0.3007	3.7 mN/m
333.13 K, w1 = 0.6949	5.3 mN/m and 5.2 mN/m
333.14 K, w1 = 0.4975	4.3 mN/m
